From patent publication EP4427759A1, “TRACEABLE CHIMERIC ANTIGEN RECEPTOR CELL” (Eberhard-Karls-Universität Tübingen, priority 2023, dated 2024)

How the values were obtained:
[1] = system: HCT116 CTRL xenografts; experiment: HCT116 control xenograft model, ex vivo biodistribution by gamma-counting; assay type: in vivo, NOD.CB17-Prkdcscid/J mice; conditions: gamma-counting after 1 h dynamic PET scan, n = 5
Protocol: (§1) For the xenograft model, 5 × 10^6 cells/mL cells were injected. Five NOD.CB17-Prkdcscid/J were injected with HCT116 WT, and five additional mice were injected with HCT116 AdCAR subcutaneously into the right flank in a mixture of 1:1 Matrigel and PBS (200 µL per mouse) with a 1 mL syringe (30G canula). Afterwards the tumors grew for approximately two weeks before PET and MR measurements.
(§2) For the xenograft model a one-hour dynamic PET scan was performed. The mice were anaesthetized with isoflurane (initially 5%, then 1.5-2%) and a catheter was placed into the tail vein. The mice were placed onto the scanner bed and the body was centered into the field of view (FOV). Mice were injected with13.6 ± 0.35 MBq of [^18F]biotin3FB on average at the beginning of the PET scan and measured for 1h. Afterwards, MR scans were performed to gain anatomical information using an TurboRare spin-echo sequence. After the scans, the mice were sacrificed, and the organs were collected to quantify radiotracer uptake by ex vivo gamma-counting.
(§3) Reconstruction and analysis of the acquired PET/MR data was performed with Inveon Acquisition Workplace and Inveon Research Workplace (IRW), respectively, using dynamic framing and an ordered subset expectation maximization (OSEM) 3D algorithm. For the second part of the experiment statistic framing was used. […]

[2] = one-hour dynamic PET scan, time activity curves of organs; assay type: in vivo, NOD.CB17-Prkdcscid/J mice
Protocol: as §2
(§4) Reconstruction and analysis of the acquired PET/MR data was performed with Inveon Acquisition Workplace and Inveon Research Workplace (IRW), respectively, using dynamic framing and an ordered subset expectation maximization (OSEM) 3D algorithm. For the second part of the experiment statistic framing was used. Regions of interest (ROIs) were drawn under consideration of the acquired MR images and co-registered with the PET data to obtain time-activity curves (TACs).

[3] = system: Jurkat AdCAR cells; experiment: Jurkat model, static PET/MR and ex vivo biodistribution; assay type: in vivo, mice; conditions: Jurkat AdCAR vs Jurkat CTRL i.p.; day 1, 3 and 7 after cell injection; 1 h resting uptake
Protocol: Five mice were injected with 1 × 10^7 cells/mL Jurkat LucGFP (CTRL), and five additional mice were injected with 1 × 10^7 cells/mL Jurkat aCAR in 200µl PBS into the peritoneal cavity with a 1 mL syringe (30G canula).
For the Jurkat model a ten-minute static PET scan was performed. The mice were anaesthetized with isoflurane (initially 5%, then 1.5-2) and a catheter was placed into the tail vein. The mice were injected with 13.6 ± 0.24 MBq of [^18F]biotin3FB on average and afterwards placed in an isoflurane box for a one-hour resting uptake. After 1 h, the mice were placed onto the scanner bed, the body was centered into the FOV, and a 10 min PET scan was performed. Afterwards, MR scans were performed as described above. The PET and MR measurements took place on day 1, 3 and 7 after cell injection. When the measurements on the 7th day were finished, the mice were sacrificed and uptake in spleen, lymph nodes, muscle and blood were quantified by ex vivo gamma-counting.
as §3

[4] = system: HCT116 AdCAR xenografts; experiment: HCT116 AdCAR xenograft model, PET/MR and ex vivo biodistribution by gamma-counting; assay type: in vivo, NOD.CB17-Prkdcscid/J mice
Protocol: as §1, §2, §4

[5] = ex vivo biodistribution, xenograft model

## [^18F]biotin3fluorobenzoate [[^18F]biotin3FB]
[1]
  uptake in xenografts, ex vivo biodistribution analysis: 0.73 % ID/g
[2]; brain, mice with HCT116 AdCAR xenografts
  SUVpeak(aCAR), brain TAC: 0.54
[2]; brain, mice with HCT116 CTRL xenografts
  SUVpeak(CTRL), brain TAC: 0.45
[2]; calculated from the heart TAC, i.v. tail vein
  blood half-life: 2.3 min
[2]; [5]
  radiotracer uptake in the brain: Almost no uptake
  radiotracer uptake in the kidney: High radiotracer uptake
[3]
  difference between AdCAR expressing cells and control cells (PET/MR, spleen uptake): no difference
[4]; AdCAR expressing xenografts, gamma-counting after 1 h dynamic PET scan, n = 5
  uptake in xenografts, ex vivo biodistribution analysis: 4.59 % ID/g
[4]; P=0.0159, Mann-Whitney test, n = 5 per group
  tumor-to-muscle ratio (TMR), AdCAR xenografts compared to control xenografts: significantly higher
[4]; p = 0.0050, unpaired t test, n = 5 per group
  absolute tumor uptake, AdCAR xenografts compared to control xenografts: significantly higher
